In patent US20080119530A1, “Method for treatment and prevention of ultraviolet light induced skin pathologies” (priority 2006, published 2008):

Assays:
[1] = tested on: skin; assay: TUNEL analysis of apoptotic basal cells in UV-exposed skin; set-up: species or system mouse; details: 24 h after UV, in vivo
Method: Microscopy. Hematoxylin and eosin staining was performed on paraffin-embedded sections following standard protocols. Following antigen retrieval, paraffin-embedded sections were incubated with antibodies to keratin 1, keratin 6, filaggrin (all from Covance, Princeton, N.J.), or […] (R&D Systems, Minneapolis, Minn.), Alexa Fluor 488-conjugated secondary antibody (Molecular Probes), and 4′,6-diamidino-2-phenylindole (DAPI; Vector Laboratories, Burlingame, Calif.). Apoptotic cells were identified using terminal deoxynucleotidyl transferase-mediated dUTP nick end labeling (TUNEL; Promega, Madison, Wis.).
Therefore, the effect of inhibition of Erbb2 on apoptotic cell death was examined in vivo by TUNEL. The percentage of TUNEL-positive basal cells peaked at 18% in vehicle-treated skin at 24 h after UV.
It has been discovered that Erbb2 modulates the expression of genes important in both proliferation and apoptosis following UV exposure in vivo (Example 9). Accordingly, the influence of Erbb2 on both apoptosis and cell proliferation was assessed in order to determine the mechanisms of Erbb2's effect on hyperplasia in the skin after UV irradiation. Erbb2 suppresses UV-induced apoptosis in vitro, although the effect was slight (32). […]

[2] = tested on: platelet-derived growth factor receptor kinase
[3] = target: T1, Erbb2 (Mus musculus, UniProt P70424); assay: UV-induced activation (phosphorylation) of Erbb2; type: cell-based
T1 construct: endogenous in cells; host or cells: primary newborn mouse keratinocytes; also mouse epidermis/skin extracts
T1 sequence (P70424 23-1256): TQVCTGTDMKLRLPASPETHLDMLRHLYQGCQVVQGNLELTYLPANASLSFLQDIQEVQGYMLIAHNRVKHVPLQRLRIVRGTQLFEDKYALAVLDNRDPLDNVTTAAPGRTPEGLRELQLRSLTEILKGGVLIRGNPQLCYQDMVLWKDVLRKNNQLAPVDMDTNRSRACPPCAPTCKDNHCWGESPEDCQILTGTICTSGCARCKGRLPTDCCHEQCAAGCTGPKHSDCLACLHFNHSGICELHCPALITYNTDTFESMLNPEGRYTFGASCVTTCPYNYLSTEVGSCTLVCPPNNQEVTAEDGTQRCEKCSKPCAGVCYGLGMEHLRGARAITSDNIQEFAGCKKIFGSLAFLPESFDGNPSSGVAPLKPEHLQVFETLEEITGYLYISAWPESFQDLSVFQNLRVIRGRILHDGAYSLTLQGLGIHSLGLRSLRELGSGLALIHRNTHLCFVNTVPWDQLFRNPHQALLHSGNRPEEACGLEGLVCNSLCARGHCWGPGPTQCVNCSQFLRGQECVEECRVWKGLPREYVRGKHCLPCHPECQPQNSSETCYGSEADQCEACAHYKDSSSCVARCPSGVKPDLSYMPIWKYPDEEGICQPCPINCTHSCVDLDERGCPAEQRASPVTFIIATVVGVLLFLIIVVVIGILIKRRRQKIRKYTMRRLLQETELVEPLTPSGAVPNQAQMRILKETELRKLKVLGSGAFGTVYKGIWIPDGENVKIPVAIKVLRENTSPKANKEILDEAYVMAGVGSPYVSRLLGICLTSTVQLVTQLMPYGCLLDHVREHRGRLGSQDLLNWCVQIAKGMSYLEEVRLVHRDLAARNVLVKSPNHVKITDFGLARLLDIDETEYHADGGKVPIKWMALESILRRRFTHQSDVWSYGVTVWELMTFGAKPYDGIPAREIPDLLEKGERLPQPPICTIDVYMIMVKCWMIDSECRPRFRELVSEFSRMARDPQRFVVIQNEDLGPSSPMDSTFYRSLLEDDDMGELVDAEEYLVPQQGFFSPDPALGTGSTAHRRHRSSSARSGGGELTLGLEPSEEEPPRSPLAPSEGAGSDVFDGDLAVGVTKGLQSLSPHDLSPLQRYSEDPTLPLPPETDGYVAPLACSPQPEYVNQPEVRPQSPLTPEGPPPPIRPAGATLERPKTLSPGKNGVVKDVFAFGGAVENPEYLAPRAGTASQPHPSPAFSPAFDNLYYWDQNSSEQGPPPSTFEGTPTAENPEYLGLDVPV
Text: For some experiments, the epidermis was separated from the skin by the heat shock method before homogenization. Keratinocytes were lysed in the same buffer. Membranes were immunoblotted with antibodies recognizing Erbb2, phospho-Erbb2 (Tyr^1248), EGFR, phospho-EGFR (Tyr^992), phospho-EGFR (Tyr^1173), phosphotyrosine, and Tall (Calbiochem, San Diego, Calif.). Binding of horseradish peroxidase-conjugated secondary antibodies (Cell Signaling, Beverly, Mass.) was visualized using chemiluminescent reagents (Pierce, Rockford, Ill.) and autoradiography. Densitometry was performed using IDScan software (Scanalytics, Fairfax, Va.).
(§1) Several methods were developed to regulate Erbb2 expression and activity both in vitro and in vivo.

[4] = tested on: skin; assay: Cell cycle analysis of skin sections by flow cytometry; type: in vivo, mouse; details: inhibition prior to UV irradiation
Method: Flow cytometry. […] sections from paraffin embedded blocks were dewaxed with xylene, rehydrated and digested in PBS containing 0.5% pepsin (Sigma, St. Louis, Mo.). The nuclei were isolated by filtration and suspended in Vindelov's (56) solution reagent (3.5 mM tris base, pH 7.6, 10 mM NaCl, 10 μg/ml Ribonuclease A, 75 μg/ml PI, 1.0 μl/ml IPEGAL; (71)). At least 10,000 events from each sample were analyzed for flow cytometry on a FACSCalibur flow cytometer (Becton Dickinson, Franklin Lakes, N.J.). Data were acquired in the FL2 channel with a […] filter. Fluorescence signals were pulse processed and single cells identified using a FL2W versus FL2A plot. A histogram of FL2A was plotted for single cells and cell cycle distributions determined using ModFit LT 3.1 software (Verity Software House, Topsham, Me.).
Cell cycle. […] For in vitro analysis, keratinocytes were resuspended, fixed in 70% ethanol, resuspended in Vindelov's solution (3.5 mM Tris base, pH 7.6, 10 mM NaCl, 10 μg/ml Ribonuclease A, 75 μg/ml propidium iodide, 1.01l/ml IPEGAL), and analyzed on a FACSCalibur flow cytometer (Becton Dickinson, Franklin Lakes, N.J.). Cell cycle distributions were determined using ModFit LT 3.1 software (Verity Software House, Topsham, Me.). […]

[5] = tested on: Tg.AC mice; assay: UV-induced epidermal hyperplasia in mouse skin; type: in vivo
Text: Animals. Homozygous v-rasHa transgenic mice on an FVB/N background were used in in vivo experiments. To obtain keratinocytes with genetic ablation of Erbb2, loxP sites were inserted flanking exon 2 of Erbb2 such that splicing from exon1 to downstream introns upon Cre recombinase expression creates a frameshift mutation. Mice were maintained in our animal facility and provided with Purina lab chow (Nestle Purina PetCare, St. Louis, Mo.) and water ad libitum. The dorsal skin was clipped one day before treatment using electric clippers (Wahl, Sterling, II) and shaved on the day of treatment with a Remington Microscreen shaver (Madison, N.C.). […] The Ultraviolet-B TL 40W/12 RS bulbs (Philips, Somerset, N.J.) used emitted approximately 30% UVA, 70% UVB and <1% UVC, with a total output of 470 μW/cm^2, as measured with radiometric photodetector probes (Newport, Irvine, Calif.). For tumor experiments, homozygous Tg.AC mice were treated and exposed twice with an interval of 7 d. Tumor number was counted and tumor volume measured weekly using calipers. Skin-fold thickness was measured using calipers (Mitutoyo, Aurora, Ill.) to lightly pinch the dorsal skin. […]
The influence of Erbb2 on epidermal hyperplasia was measured during the first two weeks of the tumor experiment regimen. […]

[6] = tested on: Erbb3; assay: UV-induced phosphorylation of Erbb3; type: cell-based, mouse
Text: as §1

With `COc1cc(/C=C(\C#N)C(N)=O)cc(CSc2nc3ccccc3s2)c1O` [AG825] the “apoptotic cell death (TUNEL-positive basal cells)” value [1] was “did not increase”, the “fold higher IC50 for platelet-derived growth factor receptor kinase than for Erbb2” value [2] was “more than 100 fold” and the “duration of the inhibition of Erbb2” value [3] was “less than 24 h”. The “activation of Erbb2 by UV” value ([3]; both in vivo and in vitro) was “blocked”, the “UV-induced phosphorylation of Erbb2 at Tyr1248” value ([3]; cultured keratinocytes) was “inhibited” and the “S-phase cells in skin” value [4] was “increased”. The “effect on epidermal hyperplasia” value ([5]; first week after UV irradiation) was “minimal”, the epidermal hyperplasia ([5]; following the second UV irradiation) was “significantly suppressed” and the “UV-induced phosphorylation of Erbb3-Tyr1289” value [6] was “blocked”.
